# From PubChem BioAssay (NCI)
#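 Each compound was tested at five concentrations against cells in 96-well plates for 48 hours. The concentration for full growth arrest is given as TGI.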
# Tests used:
# Experiment in all cases: growth of human tumour cells (NCI), 48 h
# OVCAR-8 ovarian = tested on: OVCAR-8 ovarian
# HOP-92 NSCLC = tested on: HOP-92 NSCLC
# COLO 205 colon = tested on: COLO 205 colon
# CAKI-1 renal = tested on: CAKI-1 renal
# 786-0 renal = tested on: 786-0 renal
# A549 NSCLC = tested on: A549 NSCLC
# DU-145 prostate = tested on: DU-145 prostate
# OVCAR-4 ovarian = tested on: OVCAR-4 ovarian
# CCRF-CEM leukemia = tested on: CCRF-CEM leukemia
# EKVX NSCLC = tested on: EKVX NSCLC
# MCF7 breast = tested on: MCF7 breast
# SW-620 colon = tested on: SW-620 colon
# ACHN renal = tested on: ACHN renal
# M14 melanoma = tested on: M14 melanoma
# NCI-H226 lung = tested on: NCI-H226 lung
# HS 578T breast = tested on: HS 578T breast
# U251 CNS = tested on: U251 CNS
# SF-295 CNS = tested on: SF-295 CNS
# HL-60(TB) leukemia = tested on: HL-60(TB) leukemia
# UACC-62 melanoma = tested on: UACC-62 melanoma
# SK-MEL-28 melanoma = tested on: SK-MEL-28 melanoma
# OVCAR-3 ovarian = tested on: OVCAR-3 ovarian
# A498 renal = tested on: A498 renal
# MDA-N = tested on: MDA-N
# RPMI-8226 leukemia = tested on: RPMI-8226 leukemia
# HCT-116 colon = tested on: HCT-116 colon
# SK-MEL-5 melanoma = tested on: SK-MEL-5 melanoma
# UACC-257 melanoma = tested on: UACC-257 melanoma
# RXF 393 renal = tested on: RXF 393 renal
# OVCAR-5 ovarian = tested on: OVCAR-5 ovarian
# MDA-MB-435 = tested on: MDA-MB-435
# UO-31 renal = tested on: UO-31 renal
# HT29 colon = tested on: HT29 colon
# MOLT-4 leukemia = tested on: MOLT-4 leukemia
# NCI/ADR-RES ovarian = tested on: NCI/ADR-RES ovarian
# HCC-2998 colon = tested on: HCC-2998 colon
# LOX IMVI melanoma = tested on: LOX IMVI melanoma
# SR leukemia = tested on: SR leukemia
# SF-268 CNS = tested on: SF-268 CNS
# SNB-19 CNS = tested on: SNB-19 CNS
# HCT-15 colon = tested on: HCT-15 colon
# KM12 colon = tested on: KM12 colon
# K-562 leukemia = tested on: K-562 leukemia
# IGROV1 ovarian = tested on: IGROV1 ovarian
# PC-3 prostate = tested on: PC-3 prostate
# HOP-62 NSCLC = tested on: HOP-62 NSCLC
# NCI-H460 lung = tested on: NCI-H460 lung
# NCI-H23 lung = tested on: NCI-H23 lung
# SN12C renal = tested on: SN12C renal
# SNB-75 CNS = tested on: SNB-75 CNS
# SK-OV-3 ovarian = tested on: SK-OV-3 ovarian
# MDA-MB-231 breast = tested on: MDA-MB-231 breast
# MALME-3M melanoma = tested on: MALME-3M melanoma
# TK-10 renal = tested on: TK-10 renal
# T-47D breast = tested on: T-47D breast
structure (smiles),measurement,setting,value
CCOC(=O)c1c(-c2ccc(O)c(OC)c2)c(C#N)c(=S)n(C2OC(CO)C(O)C(O)C2O)c1-c1ccccc1 (stereo not given),TGI,OVCAR-8 ovarian,> 100 µM
same,TGI,HOP-92 NSCLC,> 100 µM
same,TGI,COLO 205 colon,> 100 µM
same,TGI,CAKI-1 renal,> 100 µM
same,TGI,786-0 renal,> 100 µM
same,TGI,A549 NSCLC,> 100 µM
same,TGI,DU-145 prostate,> 100 µM
same,TGI,OVCAR-4 ovarian,> 100 µM
same,TGI,CCRF-CEM leukemia,> 100 µM
same,TGI,EKVX NSCLC,> 100 µM
same,TGI,MCF7 breast,> 100 µM
same,TGI,SW-620 colon,> 100 µM
same,TGI,ACHN renal,> 100 µM
same,TGI,M14 melanoma,> 100 µM
same,TGI,NCI-H226 lung,> 100 µM
same,TGI,HS 578T breast,> 100 µM
same,TGI,U251 CNS,> 100 µM
same,TGI,SF-295 CNS,> 100 µM
same,TGI,HL-60(TB) leukemia,> 100 µM
same,TGI,UACC-62 melanoma,> 100 µM
same,TGI,SK-MEL-28 melanoma,> 100 µM
same,TGI,OVCAR-3 ovarian,> 100 µM
same,TGI,A498 renal,> 100 µM
same,TGI,MDA-N,> 100 µM
same,TGI,RPMI-8226 leukemia,> 100 µM
same,TGI,HCT-116 colon,> 100 µM
same,TGI,SK-MEL-5 melanoma,> 100 µM
same,TGI,UACC-257 melanoma,> 100 µM
same,TGI,RXF 393 renal,> 100 µM
same,TGI,OVCAR-5 ovarian,> 100 µM
same,TGI,MDA-MB-435,> 100 µM
same,TGI,UO-31 renal,> 100 µM
same,TGI,HT29 colon,> 100 µM
same,TGI,MOLT-4 leukemia,> 100 µM
same,TGI,NCI/ADR-RES ovarian,> 100 µM
same,TGI,HCC-2998 colon,> 100 µM
same,TGI,LOX IMVI melanoma,> 100 µM
same,TGI,SR leukemia,> 100 µM
same,TGI,SF-268 CNS,> 100 µM
same,TGI,SNB-19 CNS,> 100 µM
same,TGI,HCT-15 colon,> 100 µM
same,TGI,KM12 colon,> 100 µM
same,TGI,K-562 leukemia,> 100 µM
same,TGI,IGROV1 ovarian,> 100 µM
same,TGI,PC-3 prostate,> 100 µM
same,TGI,HOP-62 NSCLC,> 100 µM
same,TGI,NCI-H460 lung,> 100 µM
same,TGI,NCI-H23 lung,> 100 µM
same,TGI,SN12C renal,> 100 µM
CC1OC(c2ccc3c(OCc4ccccc4)cccc3c2O)CC(OCc2ccccc2)[C@H]1OCc1ccccc1 (stereo not given in full),TGI,OVCAR-8 ovarian,> 10 µM
same,TGI,SNB-75 CNS,> 10 µM
same,TGI,COLO 205 colon,> 10 µM
same,TGI,SK-OV-3 ovarian,> 10 µM
same,TGI,CAKI-1 renal,> 10 µM
same,TGI,786-0 renal,> 10 µM
same,TGI,A549 NSCLC,> 10 µM
same,TGI,DU-145 prostate,> 10 µM
same,TGI,CCRF-CEM leukemia,> 10 µM
same,TGI,EKVX NSCLC,> 10 µM
same,TGI,MCF7 breast,> 10 µM
same,TGI,SW-620 colon,> 10 µM
same,TGI,M14 melanoma,> 10 µM
same,TGI,SF-295 CNS,> 10 µM
same,TGI,MDA-MB-231 breast,> 10 µM
same,TGI,HL-60(TB) leukemia,> 10 µM
same,TGI,UACC-62 melanoma,> 10 µM
same,TGI,SK-MEL-28 melanoma,> 10 µM
same,TGI,MALME-3M melanoma,> 10 µM
same,TGI,MDA-N,> 10 µM
same,TGI,RPMI-8226 leukemia,> 10 µM
same,TGI,SK-MEL-5 melanoma,> 10 µM
same,TGI,UACC-257 melanoma,> 10 µM
same,TGI,RXF 393 renal,> 10 µM
same,TGI,HT29 colon,> 10 µM
same,TGI,MOLT-4 leukemia,> 10 µM
same,TGI,HCC-2998 colon,> 10 µM
same,TGI,TK-10 renal,> 10 µM
same,TGI,SF-268 CNS,> 10 µM
same,TGI,T-47D breast,> 10 µM
same,TGI,HCT-15 colon,> 10 µM
same,TGI,KM12 colon,> 10 µM
same,TGI,K-562 leukemia,> 10 µM
same,TGI,IGROV1 ovarian,> 10 µM
same,TGI,PC-3 prostate,> 10 µM
same,TGI,HOP-62 NSCLC,> 10 µM
same,TGI,NCI-H23 lung,> 10 µM
same,TGI,SN12C renal,> 10 µM
COc1ccc2/c(=C/c3ccc(N(C)C)cc3)c3cc(-c4ccccc4)[n+](C)n3c2c1,TGI,OVCAR-8 ovarian,0.731 µM
same,TGI,COLO 205 colon,0.236 µM
same,TGI,SK-OV-3 ovarian,1.68 µM
same,TGI,CAKI-1 renal,7.77 µM
same,TGI,DU-145 prostate,1.77 µM
same,TGI,OVCAR-4 ovarian,4.19 µM
same,TGI,CCRF-CEM leukemia,5.37 µM
same,TGI,SW-620 colon,1.47 µM
same,TGI,ACHN renal,2.39 µM
same,TGI,M14 melanoma,1.16 µM
same,TGI,U251 CNS,1.27 µM
same,TGI,SF-295 CNS,2.51 µM
same,TGI,MDA-MB-231 breast,1.66 µM
same,TGI,HL-60(TB) leukemia,0.106 µM
same,TGI,MALME-3M melanoma,0.579 µM
same,TGI,MDA-N,0.475 µM
same,TGI,RPMI-8226 leukemia,0.912 µM
same,TGI,HCT-116 colon,1.37 µM
same,TGI,SK-MEL-5 melanoma,0.292 µM
same,TGI,UACC-257 melanoma,0.888 µM
same,TGI,OVCAR-5 ovarian,1.44 µM
same,TGI,UO-31 renal,5.2 µM
same,TGI,HT29 colon,0.624 µM
same,TGI,MOLT-4 leukemia,0.931 µM
same,TGI,NCI/ADR-RES ovarian,> 100 µM
same,TGI,HCC-2998 colon,1.08 µM
same,TGI,TK-10 renal,1.43 µM
same,TGI,SR leukemia,0.962 µM
same,TGI,SF-268 CNS,1.19 µM
same,TGI,SNB-19 CNS,2.2 µM
same,TGI,T-47D breast,2.77 µM
same,TGI,HCT-15 colon,3.28 µM
same,TGI,KM12 colon,1.99 µM
same,TGI,K-562 leukemia,1.15 µM
same,TGI,PC-3 prostate,0.543 µM
same,TGI,HOP-62 NSCLC,2.63 µM
same,TGI,NCI-H460 lung,3.56 µM
same,TGI,SN12C renal,1.6 µM
